For this test, the system named is HL-1 cardiomyocytes. In words: Oxygen consumption (Clark-type oxygen electrode) in HL-1 cardiomyocytes. As to conditions: HL-1 cells, 48 hr treatment, normalized to protein content; FIG. 5. The class given is cell-based, Mus musculus. As to the method: Oxygen consumption in HL-1 cardiomyocytes treated with amino acid based compositions or DETA-NO for 48 hr. ****p<0.001 vs. untreated cell; ####p<0.001 vs. BCAAem and B2.
An amount of 1 ml of HL-1 cardiomyocytes treated with the compositions shown in Table 1 was re-suspended in Hank's balanced salt solution (Sigma) and spun down to pellet cells. A number of HL-1 cells was also supplemented with a nitic oxide (NO) donor, specifically with diethylenetriamine-NO also called DETA-NO (Sigma-Aldrich, Milan, Italy), as positive control.
Then, cells were re-suspended in a respiration buffer (0.3 M mannitol, 10 mM KCl, 5 mM MgCl2, 10 mM K2PO4, pH 7.4) at a density of 3.0×10^6/ml.
Samples were analyzed at 37° C. in a gas-tight vessel equipped with a Clark-type oxygen electrode (Rank Brothers Ltd.) connected to a chart recorder.
The oxygen electrode was calibrated assuming the concentration of oxygen in the incubation medium as 200 μmol/l at 37° C.
Oxygen consumption was assessed with continuous mixing for about ten minutes. The slope of the trace recorder was then used to calculate oxygen consumption. Oxygen content may vary depending on the amount of cells. Thus, protein content, which directly correlates with cell content, has been used to normalize the oxygen consumption in cell samples. Protein content was determined by using the bicinchoninic acid protein (BCA) assay.

For `NCCN(CCN)/[N+]([O-])=N/O` [DETA-NO, diethylenetriamine-NO], the oxygen consumption result was “rise”.
